Measured values published in ChEMBL document CHEMBL6078615, “Sesquilignans: Current research and potential prospective” (Eur J Med Chem, 2024).
In brackets after ≈: the same amount, converted by molar mass.

Columns and labels:
RAW264.7 [1] = test: Anti-inflammatory activity in mouse RAW264.7 cells assessed as inhibition of LPS-induced NO production pre-incubated for 2 hrs followed by LPS-stimulation for 22 hrs by Griess reaction assay; format: functional; set-up: concentration or dose not given beside the values; settings: time 24 hrs
SH-SY5Y [2] = test: Inhibition of H2O2-induced oxidative stress in human SH-SY5Y cells assessed as residual ROS level at 25 uM incubated for 3 hrs relative to control; format: functional
BV-2 [3] = test: Anti-inflammatory activity against mouse BV-2 cells assessed as inhibition of LPS-induced NO production pretreated for 2 hrs followed stimulated with LPS for 22 hrs by Griess reaction assay; format: functional, cell-based
[4] = Inhibition of alpha-glucosidase (unknown origin); set-up: species or system Homo sapiens
Acetylcholinesterase = Acetylcholinesterase (Homo sapiens, UniProt P22303); test: Inhibition of AChE (unknown origin)
Acetylcholinesterase, sequence (P22303 whole entry): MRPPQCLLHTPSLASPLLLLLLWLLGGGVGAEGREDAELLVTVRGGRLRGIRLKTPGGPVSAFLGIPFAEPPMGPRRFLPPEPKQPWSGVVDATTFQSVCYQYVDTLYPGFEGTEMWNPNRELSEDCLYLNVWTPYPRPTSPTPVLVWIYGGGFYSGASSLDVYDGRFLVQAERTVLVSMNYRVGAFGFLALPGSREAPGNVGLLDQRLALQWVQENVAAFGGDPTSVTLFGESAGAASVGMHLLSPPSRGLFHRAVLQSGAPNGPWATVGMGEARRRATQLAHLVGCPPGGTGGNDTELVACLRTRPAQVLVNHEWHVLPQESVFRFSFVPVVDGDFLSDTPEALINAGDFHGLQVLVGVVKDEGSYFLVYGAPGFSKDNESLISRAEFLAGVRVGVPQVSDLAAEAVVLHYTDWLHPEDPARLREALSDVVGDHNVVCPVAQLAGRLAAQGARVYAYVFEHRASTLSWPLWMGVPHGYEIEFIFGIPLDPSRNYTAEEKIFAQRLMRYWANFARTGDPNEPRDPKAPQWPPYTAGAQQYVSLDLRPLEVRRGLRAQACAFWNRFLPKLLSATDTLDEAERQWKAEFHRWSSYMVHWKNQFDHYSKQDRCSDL

[5] = Cytotoxicity against human HUVEC cells assessed as reduction in cell growth incubated for 48 hrs by CCK-8 method; format: toxicity, cell-based
[6] = Antioxidant activity assessed as DPPH radical scavenging activity incubated for 30 mins by spectrophotometric analysis; format: functional
CNE-2 = test: Anticancer activity against human CNE-2 cells assessed as reduction in cell growth; format: functional, cell-based
HeLa = test: Cytotoxicity against human HeLa cells assessed as reduction in cell viability incubated for 48 hrs by MTT assay; format: functional, cell-based
HL-60 = test: Antiproliferative activity against human HL-60 cells assessed as reduction in cell viability incubated for 72 hrs by MTT assay; format: functional, cell-based; settings: HL-60, 72 h
HepG2 = test: Cytotoxicity against human HepG2 cells assessed as reduction in cell viability by MTT assay; format: functional, cell-based
MCF7 = test: Cytotoxicity against human MCF7 cells assessed as reduction in cell viability incubated for 72 hrs by MTT assay; format: functional, cell-based; settings: MCF7, 72 h
RAW264.7 [7] = test: Antiinflammatory activity in LPS-induced mouse RAW264.7 cells assessed as inhibition of TNFalpha secretion preincubated for 1 hr followed by LPS addition measured for 24 hrs by ELISA method; format: functional, cell-based
RAW264.7 [8] = test: Antiinflammatory activity in LPS-induced mouse RAW264.7 cells assessed as inhibition of IL-1beta secretion preincubated for 1 hr followed by LPS addition for 24 hrs by ELISA method; format: functional, cell-based
RAW264.7 [9] = test: Antiinflammatory activity in LPS-induced mouse RAW264.7 cells assessed as inhibition of IL-6 secretion preincubated for 1 hr followed by LPS addition for 24 hrs by ELISA method; format: functional, cell-based
HT-29 = test: Antiproliferative activity against human HT-29 cells assessed as reduction in cell viability after 72 hrs by MTS assay; format: functional, cell-based; settings: HT-29, 72 h
SH-SY5Y [10] = test: Induction of apoptosis in human SH-SY5Y cells assessed as increase in caspase-3 activity at 25 uM incubated for 72 hrs by colorimetric assay relative to control; format: functional
Ebolavirus = test: Antiviral activity against Ebola virus; format: functional, organism-based; settings: Orthoebolavirus
K562 = test: Antiproliferative activity against human K562 cells assessed as reduction in cell viability incubated for 72 hrs by CCK-8 assay; format: functional, cell-based; settings: K562, 72 h
BV-2 [11] = test: Anti-inflammatory activity against mouse BV-2 cells assessed as inhibition of LPS-induced NO production at 10 uM pretreated for 2 hrs followed stimulated with LPS for 22 hrs by Griess reaction assay relative to control; format: functional; settings: time 24 hrs

## COc1ccc([C@@H](O)[C@@H](C)Oc2ccc([C@H]3O[C@H](c4ccc5c(c4)OCO5)[C@H](C)[C@H]3C)cc2OC)cc1OC
RAW264.7 [1]
  Activity: 2.62%

## COc1cc([C@@H]2c3c(cc(OC)c4c3[C@H](CO)[C@H](c3ccc(O)c(OC)c3)O4)C[C@H](CO)[C@H]2CO)ccc1O
RAW264.7 [1]
  Activity: 19.46%

## COc1cc([C@H](O)[C@@H](CO)Oc2ccc([C@@H](O)[C@H](CO)Oc3c(OC)cc([C@H](O)[C@@H](O)CO)cc3OC)cc2OC)ccc1O
SH-SY5Y [2]
  Activity: 75.9%

## OC[C@@H]1Oc2ccc([C@H]3OC[C@H]4[C@@H]3CO[C@@H]4c3ccc(O)c(O)c3)cc2O[C@H]1c1ccc(O)c(O)c1 [PRINCEPIN]
BV-2 [3]
  IC50: 1.28 µM

## COc1cc([C@@H](O)[C@@H](CO)Oc2c(OC)cc([C@@H]3OC[C@@H]4[C@H]3CO[C@H]4c3cc(OC)c(O)c(OC)c3)cc2OC)ccc1O
[4]
  IC50: 15.4 µM

## C=CCc1ccc(Oc2cc(CC=C)cc(-c3cc(CC=C)ccc3O)c2O)cc1
Acetylcholinesterase
  IC50: 10 µM

## COCc1c(-c2ccc(O)c(OC)c2)oc2c(OC)cc([C@H]3OC[C@@H]4[C@H]3CO[C@@H]4c3ccc(O)c(OC)c3)cc12
[5]
  IC50 at 48 h: 32.8 µM

## CC(Cc1ccc(O)cc1)c1cc([C@H]2O[C@@H](c3ccc(O)c(O)c3)[C@H](C)[C@H]2C)ccc1O (some centres not stated)
[6]
  IC50: 1.12 µM

## COc1cc(C[C@@H](CO)[C@H](CO)Cc2cc(OC)c3c(c2)[C@H](CO)[C@@H](c2ccc(O)c(OC)c2)O3)ccc1O
CNE-2
  EC50: 2 µg/mL (≈ 3.7 µM)
HeLa
  IC50: 114 µg/mL (≈ 211 µM)

## COc1cc(CC(CO)C(CO)Cc2ccc(OC(CO)C(O)c3ccc(O)c(OC)c3)c(OC)c2)ccc1O (configuration not stated)
CNE-2
  EC50: 2.4 µg/mL (≈ 4.3 µM)
HeLa
  IC50: 195 µg/mL (≈ 348 µM)

## COc1cc([C@@H](O)[C@@H](C)Oc2ccc([C@H]3O[C@@H](c4ccc(O)c(OC)c4)[C@H](C)[C@H]3C)cc2OC)ccc1O
HL-60
  IC50: 11 µM
HepG2
  IC50: 11 µM
MCF7
  IC50: 9.8 µM
RAW264.7 [1]
  Activity: 18.1%

## COc1cc([C@H]2OC[C@H]3[C@@H]2CO[C@@H]3c2ccc(O[C@H](CO)[C@@H](O)c3ccc(O)c(OC)c3)c(OC)c2)ccc1O
[4]
  IC50: 6.73 µM

## OC/C=C/c1ccc2c(c1)O[C@H](c1ccc3c(c1)O[C@@H](c1ccc(O)c(O)c1)[C@H](CO)O3)[C@@H](CO)O2
[4]
  IC50: 0.62 µM

## COc1cc([C@H](O)[C@@H](CO)Oc2c(OC)cc([C@H]3OC[C@H]4[C@@H]3CO[C@@H]4c3cc(OC)c(O)c(OC)c3)cc2OC)ccc1O
RAW264.7 [7]
  IC50: 50.9 µM
RAW264.7 [8]
  IC50: 10.9 µM
RAW264.7 [9]
  IC50: 2400 nM

## COC[C@H]1c2cc(C[C@@H]3C(=O)OC[C@H]3Cc3ccc(O)c(OC)c3)ccc2O[C@@H]1c1ccc(O)c(OC)c1
RAW264.7 [1]
  Activity: 8.59%

## COc1cc([C@H]2O[C@H](c3ccc4c(c3)OCO4)[C@H](C)[C@H]2C)ccc1O[C@H](C)[C@H](O)c1ccc2c(c1)OCO2
HT-29
  IC50: 10 µM

## COc1cc([C@@H](OC)[C@@H](CO)Oc2c(OC)cc([C@@H]3Oc4c(OC)cc([C@H](O)[C@@H](O)CO)cc4[C@H]3CO)cc2OC)ccc1O
SH-SY5Y [10]
  Activity: 90.74%
SH-SY5Y [2]
  Activity: 90.74%

## COc1cc([C@@H](O)[C@@H](CO)Oc2ccc([C@@H](O)[C@H](CO)Oc3c(OC)cc(CCCO)cc3OC)cc2OC)ccc1O
SH-SY5Y [10]
  Activity: 77.58%

## COc1cc([C@H](O)[C@@H](CO)Oc2ccc([C@@H](O)[C@@H](CO)Oc3c(OC)cc(CCCO)cc3OC)cc2OC)ccc1O
SH-SY5Y [2]
  Activity: 77.58%

## COc1cc(/C=C/C=O)cc2c1O[C@H](c1ccc3c(c1)[C@H](CO)[C@@H](c1ccc(O)cc1)O3)[C@H]2CO
BV-2 [3]
  IC50: 38.9 µM

## COc1ccc([C@@H](O)[C@@H](C)Oc2ccc([C@H]3O[C@H](c4ccc(OC)c(OC)c4)[C@H](C)[C@H]3C)cc2OC)cc1OC
Ebolavirus
  EC50: 1.7 µM

## C=CCc1ccc2c(c1)O[C@@H](c1ccc(O)c(O)c1)[C@H](Cc1cc(O)c(O)cc1CC=C)O2
RAW264.7 [1]
  Activity: 9.87%

## COc1cc([C@@H]2c3cc(O[C@H](CO)[C@H](O)c4ccc(O)c(OC)c4)c(OC)cc3C[C@H](CO)[C@H]2CO)ccc1O
SH-SY5Y [10]
  Activity: 80.72%

## COc1ccc([C@@H]2O[C@H](c3ccc(OC)c(O[C@@H](C)[C@@H](OC)c4ccc(OC)c(O)c4)c3)[C@@H](C)[C@@H]2C)cc1O
MCF7
  IC50: 8.4 µM
RAW264.7 [1]
  Activity: 18.1%

## COc1cc([C@H](OC)[C@@H](CO)Oc2c(OC)cc([C@@H]3Oc4c(OC)cc([C@H](O)[C@@H](O)CO)cc4[C@H]3CO)cc2OC)ccc1O
SH-SY5Y [2]
  Activity: 76.21%

## C=CCc1ccc(O)c(-c2cc(CC=C)cc(-c3cc(CC=C)ccc3O)c2O[C@H]2CC(C)(C)[C@@H]3CC[C@]4(C)C[C@]23CC[C@H]4O)c1
Acetylcholinesterase
  IC50: 4.58 µM

## CCO[C@@H](c1ccc(O)c(OC)c1)[C@H](CO)Oc1ccc([C@H](O)[C@@H](CO)Oc2ccc(CCCO)cc2OC)cc1OC
SH-SY5Y [2]
  Activity: 71.1%

## Oc1ccc(/C=C/C[C@@H]2CC(C(O)c3ccc(O)cc3)CO[C@H]2c2ccc(O)cc2)cc1 (some centres not stated)
RAW264.7 [1]
  Activity: 33%

## COc1cc([C@@H](O)[C@@H](C)Oc2ccc([C@@H]3O[C@H](c4ccc(O)c(OC)c4)[C@H](C)[C@H]3C)cc2OC)ccc1O
Ebolavirus
  EC50: 6.95 µM

## COc1cc([C@@H](O)[C@@H](CO)Oc2ccc([C@@H]3OC[C@@H]4[C@H]3CO[C@H]4c3ccc(O)c(OC)c3)cc2OC)ccc1O
[4]
  IC50: 3.05 µM

## COc1cc([C@H]2Oc3c(OC)cc(C[C@H]4C(=O)OC[C@@H]4Cc4ccc(OC)c(OC)c4)cc3[C@@H]2CO)ccc1O
K562
  IC50: 38.5 µg/mL (≈ 69.9 µM)

## COc1cc([C@@H](O)[C@@H](CO)Oc2c(OC)cc([C@@H]3Oc4c(OC)cc([C@H](O)[C@H](O)CO)cc4[C@H]3CO)cc2OC)ccc1O
SH-SY5Y [2]
  Activity: 75.63%

## COc1cc([C@@H]2c3cc(O[C@H](CO)[C@@H](O)c4ccc(O)c(OC)c4)c(OC)cc3C[C@H](CO)[C@@H]2CO)ccc1O
SH-SY5Y [10]
  Activity: 79.36%

## COc1cc([C@@H](O)[C@@H](CO)Oc2ccc([C@H](O)[C@H](CO)Oc3c(OC)cc([C@H](O)[C@H](O)CO)cc3OC)cc2OC)ccc1O
SH-SY5Y [2]
  Activity: 74.78%

## COc1cc(O)cc([C@@H]2c3c(cc(OC)c4c3[C@H](CO)[C@H](c3ccc(O)c(OC)c3)O4)C[C@H](CO)[C@H]2CO)c1
[4]
  IC50: 5.17 µM

## COc1cc([C@H]2OC[C@H]3[C@@H]2CO[C@@H]3c2cc(OC)c(OC)c(OC)c2)ccc1O[C@@H](CO)[C@H](O)c1cc(OC)c(OC)c(OC)c1
BV-2 [3]
  IC50: 10.9 µM

## COc1cc([C@@H]2c3c(cc(OC)c4c3[C@H](CO)[C@H](c3ccc(O[C@@H]5O[C@H](CO)[C@@H](O)[C@H](O)[C@H]5O)c(OC)c3)O4)C[C@H](CO)[C@H]2CO)ccc1O
RAW264.7 [1]
  Activity: 64.82%

## COc1cc([C@@H](O)[C@H](CO)Oc2ccc([C@H]3OC[C@H]4[C@@H]3CO[C@@H]4c3ccc(O)c(OC)c3)cc2OC)ccc1O
[4]
  IC50: 5.17 µM

## COc1cc([C@H](OC)[C@@H](CO)Oc2ccc([C@@H](O)[C@H](CO)Oc3ccc(CCCO)cc3OC)cc2OC)ccc1O
SH-SY5Y [2]
  Activity: 74.22%

## COc1cc(C[C@H]2COC(=O)[C@@H]2Cc2cc(OC)c3c(c2)[C@H](CO)[C@@H](c2ccc(O)c(OC)c2)O3)ccc1O
K562
  IC50: 53.5 µg/mL (≈ 99.7 µM)

## COc1cc([C@@H](O)[C@@H](CO)Oc2c(OC)cc([C@@H]3Oc4c(OC)cc([C@H](O)[C@@H](O)CO)cc4[C@H]3CO)cc2OC)ccc1O
SH-SY5Y [2]
  Activity: 63.72%

## COc1cc([C@H]2OC[C@H]3[C@@H]2CO[C@@H]3c2cc(OC)c(O[C@@H](CO)[C@@H](OC)c3ccc(O)c(OC)c3)c(OC)c2)ccc1O
[6]
  IC50: 55.8 µM

## COc1ccc([C@@H]2O[C@H](c3ccc(OC)c(O[C@H](C)[C@@H](O)c4ccc(O)c(OC)c4)c3)[C@H](C)[C@H]2C)cc1O
MCF7
  IC50: 8.8 µM
RAW264.7 [1]
  Activity: 18.1%

## COc1cc([C@H]2OC[C@H]3[C@@H]2CO[C@@H]3c2cc(OC)c3c(c2)[C@H](CO)[C@@H](c2ccc(O)c(OC)c2)O3)ccc1O
BV-2 [11]
  inhibition at 10 µM: 50.7%

## COc1cc(C[C@H]2C(=O)OC[C@@H]2Cc2cc(OC)c3c(c2)[C@H](CO)[C@@H](c2ccc(O)c(OC)c2)O3)ccc1O
K562
  IC50: 51.1 µg/mL (≈ 95.2 µM)

## COc1cc([C@@H](O)[C@@H](CO)Oc2ccc([C@H](O)[C@H](CO)Oc3c(OC)cc([C@H](O)[C@@H](O)CO)cc3OC)cc2OC)ccc1O
SH-SY5Y [2]
  Activity: 75.8%

## C=CCc1ccc(O)c(-c2cc(CC=C)cc(-c3cc(CC=C)ccc3O)c2O[C@@H]2C[C@@H](C(C)C)C=C[C@]2(C)O)c1
Acetylcholinesterase
  IC50: 6.55 µM
